The results in this text go back to US20160039852A1, “THERAPEUTIC USES OF BISPHOSPHONATES” (THE UNIVERSITY OF SHEFFIELD, priority 2013, published 2016).

One assay deals with murine tissues. Kind of assay: Immuno-staining of γH2AX in murine tissue following irradiation. Type of assay: in vivo, C57BL6/J mice. The conditions noted are these: 3Gy irradiation, Zol 125 μg/kg i.p. for 3 days, 12 h post irradiation. From the text:
Cells were viewed using in an Inverted Zeiss LSM 510 NLO microscope equipped with Argon (Ar) laser (488 nm) 30 mW to image the fluorescent marker FITC and UV lamp to image DAPI stained nuclei.

Assay [1] concerns intestinal crypt and villi. Kind of assay: Murine intestine regeneration following irradiation. The class given is in vivo, C57BL6/J mice. To be noted: Zol 125 μg/kg i.p. 3 days prior to 9Gy. The method, then:
Mice (C57BL6/J) were injected with either Zoledronate (single dose, i.p.,125 μg/kg) or PBS. On day 3 post-injection, Mice were exosed to whole body irradiation (9Gy; n=3/group) using 137Cs Gamma source. Within 24 hours from irradiation systemic bone marrow transplantation was performed to prevent myelotoxicity. mice were sacrificed 4 days post-irradiation for histological analysis of
Intestinal tissue. At the time of harvest this was divided with a scalpel into duodenum, ileum-jejunum, colon and rectum, and each region was further cut into 0.5 cm pieces that were placed in histological cassettes and stored in 70% ethanol prior to embedding. Tissues were paraffin embedded and sectioned at 3-5 μm thickness and mounted onto […] coated glass microscope slides. The slides were de-waxed in xylene (BDH, Leister, UK) and rehydrated by passing through a series of ethanol dilutions. The nuclei were stained by placing in Gill's haematoxylin (Sigma, Poole, UK), washed with water followed by staining of cytoplasm in alcoholic eosin (Sigma, Poole, UK) and washed. Slides were dehydrated through a series of graded alcohols and cleared in xylene for 3 minutes prior to mounting with DPX and coverslip to examine under microscope. Stained tissue sections were scanned on the Aperio Slide Scanner (Leica Biosystems, Newcastle, UK). To obtain villi length and crypt depth, images were analysed on the Aperio ImageScope Software (v11.2.0.780) and using the ruler tool, measurements were taken on a surface of 0.525 mm^2 at 3 different levels.

The next assay concerns unprenylated RAP1A. Kind of assay: Western blot of unprenylated RAP1A in cancer lines. The class given is cell-based, human and murine. The conditions noted are these: Zol (1 μM) for 72 h. The method, then:
(A) A representative example of western blot analysis of human mesenchymal stem cells (MSC) and human and murine prostate cancer cell lines (human: PC3, murine 178-2 BMA), human breast cancer cell line (MDA-MB231), murine multiple myeloma cancer lines (5TGM1 and 5T33) cultured in presence or absence of Zol (1 μM) for 72 h and assessed for the expression of unprenylated RAP1A and GAPDH.
Protein lysates (50 μg) were diluted in equal volume of 2× Laemmli buffer (Gibco) containing Dithiothreitol (DTT, Sigma,UK). The samples were heated at 95° C. for 5 minutes and loaded on a 12% Tris-glycine gel. After electro-blotting, membranes were blocked with 5% Bovine serum albumin (BSA) in 0.1% Tween 20 in PBS (PBS-T) for detection of glyceraldehyde-3-phosphate dehydrogenase (GAPDH) and 5% dry milk in PBS-T for detection of unprenylated RAP1A (Santacruz Biotechnology, Santa Cruz, USA). In case of P-AKT, P-70S6K membranes were blocked with 5%BSA in 1× tris buffered saline and 0.1% tween-20 (TBS-T), where for AKT and P70S6K membranes were blocked with 5% dry milk in TBS-T. All membranes were blocked for 2 hours at room temperature. […] Detection was carried out using enhanced chemi-luminescence plus ECL reaction kit (GE Healthcare, Buckinghamshire, UK) and quantification of protein expression was carried out using image J software.

Assay [2] has as its system murine and human cancer lines (PC3, 178-2 BMA, MDA-MB231, 5TGM1, 5T33). Kind of assay: γH2AX foci in cancer lines following irradiation. Type of assay: cell-based. The conditions noted are these: irradiation (1Gy), Zol, 0, 4, 12, 24 and 48 h post irradiation. The method, then:
(C-H) Number of γH2AX foci enumerated in (C) hMSC, (D) PC3, (E) 178-2 BMA, (F) MDA-MB231,
(G) 5TGM1 and (H) 5T33 lines following irradiation (1Gy) in the presence or absence of Zol ([…]) and assessed at 0, 4, 12, 24 and 48 h post irradiation (n=3).
Human prostate cancer cell line PC3 cells were maintained in DMEM with Glutamax (Gibco) containing 10% FBS (Sigma), 1% penicillin (100units/ml)/streptomycin (100 μg/ml) (Sigma). Mouse prostate cancer cell line 178-2 BMA was cultured as described above with the addition of 0.1 mM 4-(2-hydroxyethyl)-1-piperazineethanesulfonic acid (Life Technologies, Gaithersburg, USA) and 0.01 mM sodium pyruvate (PAA Laboratories). Human breast cancer cell line MDA-MB-231 was cultured in RPMI 1640 with Glutamax supplemented with 10% FBS (Sigma), 0.01 mM sodium pyruvate (PAA laboratories) and penicillin (1 units/ml) and streptomycin (1 μg/ml) (Sigma). […]
DNA damage was induced by exposing hMSC to ^137Cs Gamma source. […] Five to seven fields consisting of 25 cells in total were randomly selected from a tile scan (20×) and individual cells viewed at 63× were then scored for γH2AX DNA damage foci using ImageJ 1.45 software (http://rsbweb.nih.gov/ij/).

[3] abbreviates: assessed 4 days later, n=3/group.

For `O=P(O)(O)C(O)(Cn1ccnc1)P(=O)(O)O` [Zoledronate], the “levels of DNA damage (γH2AX foci) in murine tissues” value with murine tissues is reported as “decreased levels of DNA damage”. The “protection of intestinal crypt and villi following irradiation” value in assay [1] was “protects intestinal crypt and villi”. In assay [1] (setting [3]), the intestinal crypt depth result was “improved” and the villi length entry is listed as “improved”. The “mevalonate pathway (unprenylated RAP1A)” value with unprenylated RAP1A is recorded as “inhibition of mevalonate pathway”. For the same compound, the “DNA repair capacity (γH2AX foci)” value in assay [2] is reported as “does not enhance the DNA repair capacity”.
